Reference: publication PMC5584254, “Identification of novel small molecule Beclin 1 mimetics activating autophagy” (Oncotarget, 2017)
Counter-ions that a name gives are not always drawn. Like-named read-outs stand apart in the source and are kept apart here.

Columns and labels:
Bcl-xL-Beclin 1 complex [1] = molecular target: T1, Bcl-xL-Beclin 1 complex (Homo sapiens, UniProt Q07817); assay: FP-based high-throughput screening, primary screen; type: binding; settings: first screen; 40 μM compound, 2.5 μM Bcl-xL, 400 nM 20-mer
T1 construct: made in house
Source text: Next, we optimized the FP competitive binding assay in a 384-well microplate format and carried out a small-scale HTS using a small library, which contains 6580 compounds from Prestwick, Microsource and our in-house CMLD library. Then, the FP assay was optimized and applied in screening the larger Chembridge library consisting of 43736 compounds. HTS cascades are shown in Supplementary Figure 1A–1B. […] All chemical structures can be found on the PubChem website (http://pubchem.ncbi.nlm.nih.gov/).
(§1) Then the plates were read by Envision (Perkin Elmer, Waltham, MA). […] The hits were selected from library stocks and reconfirmed in a concentration response FP assay (6 doses ranging from 5 μM to 160 μM or 8 doses ranging from 0.5 μM to 60 μM).

Bcl-xL-Beclin 1 complex [2] = molecular target: T1, Bcl-xL-Beclin 1 complex; assay: Concentration response FP reconfirmation of HTS hits; type: binding; settings: for inhibition at 5 µM: read-out: Dose-response (% Inhibition) 5 μM; for inhibition at 10 µM: read-out: Dose-response (% Inhibition) 10 μM; for inhibition at 20 µM: read-out: Dose-response (% Inhibition) 20 μM; for inhibition at 40 µM: read-out: Dose-response (% Inhibition) 40 μM; for inhibition at 80 µM: read-out: Dose-response (% Inhibition) 80 μM; for inhibition at 160 µM: read-out: Dose-response (% Inhibition) 160 μM
Protocol: as §1

T1 sequence (Q07817 whole entry, one chain of several): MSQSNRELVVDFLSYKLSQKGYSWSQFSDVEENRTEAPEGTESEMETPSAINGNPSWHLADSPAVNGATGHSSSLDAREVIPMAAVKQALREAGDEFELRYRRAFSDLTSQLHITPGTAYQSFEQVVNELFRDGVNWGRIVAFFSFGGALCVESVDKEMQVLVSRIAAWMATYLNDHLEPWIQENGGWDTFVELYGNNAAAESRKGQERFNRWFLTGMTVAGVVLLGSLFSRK

Row | Compound | Primary Screen mP (Bcl-xL-Beclin 1 complex [1]) | inhibition at 40 µM (Bcl-xL-Beclin 1 complex [1]) | inhibition at 5 µM (Bcl-xL-Beclin 1 complex [2]) | inhibition at 10 µM (Bcl-xL-Beclin 1 complex [2]) | inhibition at 20 µM (Bcl-xL-Beclin 1 complex [2]) | inhibition at 40 µM (Bcl-xL-Beclin 1 complex [2]) | inhibition at 80 µM (Bcl-xL-Beclin 1 complex [2]) | inhibition at 160 µM (Bcl-xL-Beclin 1 complex [2]) | inhibition at 5 µM (Bcl-xL-Beclin 1 complex [2]; 5 μM, hits of first screen) | inhibition at 10 µM (Bcl-xL-Beclin 1 complex [2]; 10 μM, hits of first screen) | inhibition at 20 µM (Bcl-xL-Beclin 1 complex [2]; 20 μM, hits of first screen) | inhibition at 40 µM (Bcl-xL-Beclin 1 complex [2]; 40 μM, hits of first screen) | inhibition at 80 µM (Bcl-xL-Beclin 1 complex [2]; 80 μM, hits of first screen) | inhibition at 160 µM (Bcl-xL-Beclin 1 complex [2]; 160 μM, hits of first screen) | further results
1 | CC[n+]1c(-c2ccccc2)c2cc(N)ccc2c2ccc(N)cc21 [Compound A12, HOMIDIUM BROMIDE] | 113.8 mP | 15.3% | 3.5% | 5.5% | 7.2% | 12% | 26.1% | 39.2% |  |  |  |  |  |  | 
2 | O=C(O)C1=CC(=C(c2ccc(O)c(C(=O)O)c2)c2ccc(O)c(C(=O)O)c2)C=CC1=O [Compound A14, AURIN TRICARBOXYLIC ACID] | 129.7 mP | 6.76% |  |  |  |  |  |  | 0.7% | 2% | 3.8% | 4.8% | 8.1% | 8.6% | 
3 | CCCc1nc2c(C)cc(-c3nc4ccccc4n3C)cc2n1Cc1ccc(-c2ccccc2C(=O)O)cc1 [Compound A16] | 125.4 mP | 5.2% |  |  |  |  |  |  | -1.1% | -0.6% | -0.1% | 1.6% | 6.3% | 11.1% | 
4 | CCCCCCCCCc1ccc(OCCOCCOCCOCCOCCOCCOCCOCCOCCO)cc1 [Compound A17, NONOXYNOL-9] | 127.2 mP | 9.04% | -0.3% | 6.2% | 5.9% | 5.3% | 12.9% | 11.1% |  |  |  |  |  |  | 
5 | CN1C[C@H](C(=O)N[C@]2(C)O[C@@]3(O)[C@@H]4CCCN4C(=O)[C@H](Cc4ccccc4)N3C2=O)C=C2c3cccc4[nH]cc(c34)C[C@H]21 [Compound A18, ERGOTAMINE TARTRATE] | 122.3 mP | 11% | -0.2% | 0.3% | 3.3% | 5.8% | 15.6% | 25.6% |  |  |  |  |  |  | 
6 | CCCCCCCCCCCCCCCCC(C(=O)O)C(O)(CC(=O)O)C(=O)O (stereo not drawn) [Compound A19, AGARIC ACID] | 118.2 mP |  |  |  |  |  |  |  |  |  |  |  |  |  | Primary Screen % Inhibition (Bcl-xL-Beclin 1 complex [1]): 15.85%; Dose-response (% Inhibition) 5 μM (Bcl-xL-Beclin 1 complex [2]; 5 μM, hits of first screen): 3.8%; Dose-response (% Inhibition) 10 μM (Bcl-xL-Beclin 1 complex [2]; 10 μM, hits of first screen): 6.3%; Dose-response (% Inhibition) 20 μM (Bcl-xL-Beclin 1 complex [2]; 20 μM, hits of first screen): 9.1%; Dose-response (% Inhibition) 40 μM (Bcl-xL-Beclin 1 complex [2]; 40 μM, hits of first screen): 12.7%; Dose-response (% Inhibition) 80 μM (Bcl-xL-Beclin 1 complex [2]; 80 μM, hits of first screen): 20.3%; Dose-response (% Inhibition) 160 μM (Bcl-xL-Beclin 1 complex [2]; 160 μM, hits of first screen): 20.9%
7 | CCc1oc2ccccc2c1C(=O)c1cc(Br)c(O)c(Br)c1 [Compound A20, BENZBROMARONE] | 125.0 mP | 9.05% |  |  |  |  |  |  | 0.2% | 0.6% | 1% | 1.1% | 6.1% | 11.3% | 
8 | OCCN(CCO)c1nc(N2CCCCC2)c2nc(N(CCO)CCO)nc(N3CCCCC3)c2n1 [Compound A22, DIPYRIDAMOLE] | 72.7 mP | 47.8% |  |  |  |  |  |  | 10.1% | 21% | 35.1% | 46.7% | 62.9% | 72.4% | 
9 | CC[C@@]1(O)C(=O)OCc2c1cc1n(c2=O)Cc2cc3c(CN(C)C)c(O)ccc3nc2-1 [Compound A23, TOPOTECAN HYDROCHLORIDE] | 43.8 mP | 68.7% |  |  |  |  |  |  | 39.8% | 54.8% | 64.7% | 70.9% | 102% | 103% | 
10 | COc1cccc2c1C(=O)c1c(O)c3c(c(O)c1C2=O)C[C@@](O)(C(=O)CO)C[C@@H]3O[C@H]1C[C@H](N)[C@@H](O)[C@H](C)O1 [Compound A24, EPIRUBICIN HYDROCHLORIDE] | 136.0 mP | 22.8% |  |  |  |  |  |  | 6.8% | 11.3% | 16.2% | 23.1% | 34.4% | 40.9% | 
11 | COc1cccc2c1C(=O)c1c(O)c3c(c(O)c1C2=O)C[C@@](O)(C(=O)CO)C[C@@H]3O[C@H]1C[C@H](N)[C@H](O)[C@H](C)O1 [Compound A25, DOXORUBICIN HYDROCHLORIDE] | 75.9 mP | 44% |  |  |  |  |  |  | 18.9% | 29.1% | 36.5% | 41.7% | 48.6% | 53.2% | 
12 | C[n+]1c2cc(N)ccc2cc2ccc(N)cc21.[Cl-] [Compound A26, ACRIFLAVINIUM HYDROCHLORIDE] | -3.2 mP |  |  |  |  |  |  |  |  |  |  |  |  |  | Primary Screen % Inhibition (Bcl-xL-Beclin 1 complex [1]): 102.40%; Dose-response (% Inhibition) 5 μM (Bcl-xL-Beclin 1 complex [2]; 5 μM, hits of first screen): 102.5%; Dose-response (% Inhibition) 10 μM (Bcl-xL-Beclin 1 complex [2]; 10 μM, hits of first screen): 102.5%; Dose-response (% Inhibition) 20 μM (Bcl-xL-Beclin 1 complex [2]; 20 μM, hits of first screen): 102.5%; Dose-response (% Inhibition) 40 μM (Bcl-xL-Beclin 1 complex [2]; 40 μM, hits of first screen): 102.5%; Dose-response (% Inhibition) 80 μM (Bcl-xL-Beclin 1 complex [2]; 80 μM, hits of first screen): 102.0%; Dose-response (% Inhibition) 160 μM (Bcl-xL-Beclin 1 complex [2]; 160 μM, hits of first screen): 102.4%
13 | O=C1C(Cl)=C(Cl)C(=O)C(Cl)=C1Cl [Compound A27, CHLORANIL] | 140.9 mP | 27.8% | -3% | 19.4% | 22.6% | 23.4% | 28.5% | 35.9% |  |  |  |  |  |  | 
14 | CC1=NCCc2c1[nH]c1cc(O)ccc21 [Compound A28, HARMALOL HYDROCHLORIDE] | 56.2 mP | 60% |  |  |  |  |  |  | 19.2% | 31.2% | 41.6% | 56.8% | 73% | 86.2% | 
15 | Cc1cc2nc3c(=O)[nH]c(=O)nc-3n(C[C@H](O)[C@H](O)[C@H](O)CO)c2cc1C [Compound A31, RIBOFLAVIN] | -3.2 mP | 102% |  |  |  |  |  |  | 67.6% | 77.7% | 103% | 99.7% | 102% | 103% | 
16 | CCN(CC)CCNC(=O)COc1ccc(OC)cc1.Cl [Compound A32, MEFEXAMIDE HYDROCHLORIDE] | 119.7 mP |  |  |  |  |  |  |  |  |  |  |  |  |  | Primary Screen % Inhibition (Bcl-xL-Beclin 1 complex [1]): 14.40%; Dose-response (% Inhibition) 5 μM (Bcl-xL-Beclin 1 complex [2]; 5 μM, hits of first screen): -1.5%; Dose-response (% Inhibition) 10 μM (Bcl-xL-Beclin 1 complex [2]; 10 μM, hits of first screen): 2.6%; Dose-response (% Inhibition) 20 μM (Bcl-xL-Beclin 1 complex [2]; 20 μM, hits of first screen): 4.3%; Dose-response (% Inhibition) 40 μM (Bcl-xL-Beclin 1 complex [2]; 40 μM, hits of first screen): 11.2%; Dose-response (% Inhibition) 80 μM (Bcl-xL-Beclin 1 complex [2]; 80 μM, hits of first screen): 23.1%; Dose-response (% Inhibition) 160 μM (Bcl-xL-Beclin 1 complex [2]; 160 μM, hits of first screen): 32.1%
17 | O=C(O)c1cc(O)c2c(c1)[C@H]([C@H]1c3cc(C(=O)O)cc(O)c3C(=O)c3c(O[C@@H]4O[C@H](CO)[C@@H](O)[C@H](O)[C@H]4O)cccc31)c1cccc(O[C@@H]3O[C@H](CO)[C@@H](O)[C@H](O)[C@H]3O)c1C2=O [Compound A34, SENNOSIDE A] | 119.9 mP | 12.8% |  |  |  |  |  |  | 0.5% | 4.7% | 6.3% | 12% | 22.5% | 20.9% | 
18 | O=C(O)c1cc(O)c2c(c1)[C@@H]([C@H]1c3cc(C(=O)O)cc(O)c3C(=O)c3c(O[C@@H]4O[C@H](CO)[C@@H](O)[C@H](O)[C@H]4O)cccc31)c1cccc(O[C@@H]3O[C@H](CO)[C@@H](O)[C@H](O)[C@H]3O)c1C2=O [Compound A35, SENNOSIDE B] | 120.4 mP | 14.3% |  |  |  |  |  |  | 2.7% | 4.1% | 5.8% | 13.6% | 21.1% | 19.9% | 
19 | COc1cccc2c1C(=O)c1c(O)c3c(c(O)c1C2=O)C[C@@](O)(C(C)=O)C[C@@H]3O[C@H]1C[C@H](N)[C@H](O)[C@H](C)O1 [Compound A36, DAUNORUBICIN] | 75.5 mP | 45.8% | 22.8% | 33.4% | 41% | 44.4% | 51.9% | 56% |  |  |  |  |  |  | 
20 | Cc1cc2c(C(C)C)c(O)c(O)c(C=O)c2c(O)c1-c1c(C)cc2c(C(C)C)c(O)c(O)c(C=O)c2c1O [Compound A38, GOSSYPOL] | 125.4 mP | 10.8% | 2.7% | 4.8% | 5.4% | 8.4% | 14.7% | 18.3% |  |  |  |  |  |  | 
21 | O=C(Nc1ccccc1)c1ccccc1O [Compound A39, SALICYLANILIDE] | -3.2 mP | 102% | 103% | 103% | 103% | 99.7% | 102% | 103% |  |  |  |  |  |  | 
